Values quoted from earlier work in patent US20250270235A1, “COMPLEX OF GADOLINIUM AND A CHELATING LIGAND DERIVED OF A DIASTEREOISOMERICALLY ENRICHED PCTA AND SYNTHESIS METHOD” (GUERBET, priority 2019, published 2025).

Tests used:
[1] = comparative, same conditions (pH 1.2, 37° C.); cited from earlier work
[2] = as described in WO 2014/174120; comparative; cited from earlier work

| SMILES | kinetic inertia [1] [h] | kinetic inertia (dissociation, in words) [1] | also measured |
| --- | --- | --- | --- |
| O=C([O-])CN1CCN(CC(=O)[O-])CCN([C@H](CO)[C@H](O)CO)CCN(CC(=O)[O-])CC1.[Gd+3] (racemic) [gadobutrol] | 18 |  |  |
| O=C([O-])CN1CCN(CC(=O)[O-])CCN(CC(=O)O)CCN(CC(=O)[O-])CC1.[Gd+3] [DOTA-Gd, gadolinium complex of 1,4,7,10-tetraazacyclododecane-N,N′,N″,N′″-tetraacetic acid] |  |  | log (Ktherm), stability constant [2]: 25.6 |
| CNC(=O)CN(CCN(CCN(CC(=O)[O-])CC(=O)NC)CC(=O)[O-])CC(=O)[O-].[Gd+3] [gadodiamide] |  | dissociate instantaneously |  |
| O=C([O-])CN(CCN(CC(=O)[O-])CC(=O)[O-])CCN(CC(=O)[O-])CC(=O)[O-].[Gd+3] [gadopentetate] |  | dissociate instantaneously |  |
| CNC[C@H](O)[C@@H](O)[C@H](O)[C@H](O)CO.O=C([O-])CN1CCN(CC(=O)[O-])CCN(CC(=O)O)CCN(CC(=O)[O-])CC1.[Gd+3] [gadoterate] | 96 |  |  |
